Measurements: patent publication US20070264250A1, “Composition for Skin-Whitening and Wrinkle-Care” (priority 2004, published 2007)

Format: physicochemical
Details: 1 mM, pH 7
Description: Stabilities of 2-o-α-glucopyranosyl-L-ascorbic acid and ascorbic acid in an aqueous solution were compared.
(1) 2-o-α-glucopyranosyl-L-ascorbic acid, (2) ascorbic acid, and (3) 2-o-α-glucopyranosyl-L-ascorbic acid and 10 units of α-glucosidase were added to 50 mM potassium phosphate buffer solution (pH 7.0) so that a concentration of each component was 1 mM, to produce test groups. The test groups were stored at 37° C., sampled every day for 5 days, and quantitatively analyzed.
The quantitative analysis (HPLC analysis) for test materials was conducted under conditions described in the following Table 1. An amount of remaining 2-o-α-glucopyranosyl-L-ascorbic acid or ascorbic acid which was not degraded was reduced by an initial concentration, and stability was evaluated using the ratio.
However, almost all vitamin C was degraded within 2 days. […] As well, it was confirmed that converted vitamin C was immediately degraded.

For `O=C1O[C@H]([C@@H](O)CO)C(O)=C1O` [vitamin C, ascorbic acid], the “time within which almost all was degraded” value was no more than 2 days.
